Results as given in US5358947A, “Angiotensin II receptor blocking 2,3-substituted pyrazolo[1,5-a]-1,3,5-triazin-4(3H)-ones” (American Cyanamid Company, priority 1993, dated 1994).
Several values for one entry are separate records, joined by “and”; a condition that tells them apart may be missing. Equal values may be shown once.

System: ANGIOTENSIN II (AII) VASOPRESSOR RESPONSE
Experiment: AII Challenge: angiotensin II (AII) vasopressor response in conscious rats
Type: in vivo
Parameters: Response After AII / Change / Average Change: unit not given here
Conditions: for Response After AII / Change / Control Before AII: individual rat; for Control Before AII: in mmHg (unit assumed); for % Inhibition / Average Change: n = 2
Excerpt: By administering a compound of this invention to a rat, and then challenging with angiotensin II, a blockage of the vasopressor response is realized.
Conscious Male Okamoto-Aoki SHR, 16-20 weeks old, weighing approximately 330 g are purchased from Charles River Labs (Wilmington, Mass.). Conscious rats are restrained in a supine position with elastic tape. The area at the base of the tail is locally anesthetized by subcutaneous infiltration with 2% procaine. The ventral caudal artery and vein are isolated, and a cannula made of polyethylene (PE) 10-20 tubing (fused together by heat) is passed into the lower abdominal aorta and vena cava, respectively. The cannula is secured, heparinized (1,000 I.U./ml), sealed and the wound is closed. The animals are placed in plastic restraining cages in an upright position. The cannula is attached to s Statham P23Db pressure transducer, and pulsatile blood pressure is recorded to 10-15 minutes with a Gould Brush recorder. (Chan et al., (Drug Development Res., 18:75-94, 1989).
Angiotensin II (human sequence, Sigma Chem. Co., St. Louis, Mo.) of 0.05 and 0.1 ug/kg i.v. is injected into all rats (predosing response.). Then a test compound, vehicle or a known angiotensin II antagonist is administered i.v., i.p. or orally to each set of rats. The two doses of angiotensin II are given to each rat again at 30, 60, 90, 120, 180, 240 and 300 minutes post dosing the compound or vehicle. The vasopressor response of angiotensin II by a compound is calculated using the vasopressor response (increase in systolic blood pressure) of angiotensin II of each rat predosing the compound as 100%. A compound is considered active if at 30 mg/kg i.v. it antagonized at least 50% of the response.

[1] = 10 mg/kg i.v., AII 0.05 mcg/kg, 30 min post dose
[2] = 10 mg/kg i.v., AII 0.05 mcg/kg, 30 min post dose, listed as Ex. 10
[3] = 10 mg/kg i.v., AII 0.05 mcg/kg, 60 min post dose
[4] = 10 mg/kg i.v., AII 0.05 mcg/kg, 60 min post dose, listed as Ex. 10
[5] = 10 mg/kg i.v., AII 0.1 mcg/kg, 30 min post dose
[6] = 10 mg/kg i.v., AII 0.1 mcg/kg, 30 min post dose, listed as Ex. 10
[7] = 10 mg/kg i.v., AII 0.1 mcg/kg, 60 min post dose
[8] = 10 mg/kg i.v., AII 0.1 mcg/kg, 60 min post dose, listed as Ex. 10
[9] = 20 mg/kg i.v., AII 0.05 mcg/kg, 90 min post dose
[10] = 20 mg/kg i.v., AII 0.05 mcg/kg, 90 min post dose, listed as Ex. 10
[11] = 20 mg/kg i.v., AII 0.05 mcg/kg, 120 min post dose
[12] = 20 mg/kg i.v., AII 0.05 mcg/kg, 120 min post dose, listed as Ex. 10
[13] = 20 mg/kg i.v., AII 0.05 mcg/kg, 180 min post dose
[14] = 20 mg/kg i.v., AII 0.05 mcg/kg, 180 min post dose, listed as Ex. 10
[15] = 20 mg/kg i.v., AII 0.05 mcg/kg, 240 min post dose
[16] = 20 mg/kg i.v., AII 0.05 mcg/kg, 240 min post dose, listed as Ex. 10
[17] = 20 mg/kg i.v., AII 0.05 mcg/kg, 300 min post dose, listed as Ex. 10
[18] = 20 mg/kg i.v., AII 0.05 mcg/kg, 300 min post dose
[19] = 20 mg/kg i.v., AII 0.1 mcg/kg, 90 min post dose
[20] = 20 mg/kg i.v., AII 0.1 mcg/kg, 90 min post dose, listed as Ex. 10
[21] = 20 mg/kg i.v., AII 0.1 mcg/kg, 120 min post dose
[22] = 20 mg/kg i.v., AII 0.1 mcg/kg, 120 min post dose, listed as Ex. 10
[23] = 20 mg/kg i.v., AII 0.1 mcg/kg, 180 min post dose, listed as Ex. 10
[24] = 20 mg/kg i.v., AII 0.1 mcg/kg, 180 min post dose
[25] = 20 mg/kg i.v., AII 0.1 mcg/kg, 240 min post dose, listed as Ex. 10
[26] = 20 mg/kg i.v., AII 0.1 mcg/kg, 240 min post dose
[27] = 20 mg/kg i.v., AII 0.1 mcg/kg, 300 min post dose
[28] = 20 mg/kg i.v., AII 0.1 mcg/kg, 300 min post dose, listed as Ex. 10

CCCCc1nc2cc(-c3ccccc3)nn2c(=O)n1Cc1ccc(-c2ccccc2-c2nnn[nH]2)cc1 [Example 10, 2-Butyl-7-phenyl-3-[[2'-(1H-tetrazol-5-yl)[1,1'-biphenyl]-4-yl]methyl]pyrazolo[1,5-a]-1,3,5-triazin-4(3H)-one]
Response After AII [1]: 235
Change [2]: 15 and 5
Response After AII [2]: 215
Control Before AII [2]: 220 and 210
% Inhibition [1]: 80%
Average Change [1]: 10
Control Before AII [3]: 210
Change [4]: 45 and 15
Response After AII [4]: 255 and 230
Control Before AII [4]: 215
% Inhibition [3]: 40%
Average Change [3]: 30
Response After AII [5]: 245
Control Before AII [5]: 210
Change [6]: 35 and 5
Response After AII [6]: 215
% Inhibition [5]: 60%
Average Change [5]: 20
Response After AII [7]: 250
Change [8]: 40 and 10
Response After AII [8]: 215
Control Before AII [8]: 210 and 205
% Inhibition [7]: 50%
Average Change [7]: 25
Change [9]: 10
Response After AII [10]: 205 and 215
Control Before AII [10]: 195 and 205
% Inhibition [9]: 80%
Average Change [9]: 10
Response After AII [11]: 210
Change [12]: 10 and 20
Response After AII [12]: 185
Control Before AII [12]: 175 and 190
% Inhibition [11]: 70%
Average Change [11]: 15
Control Before AII [13]: 185
Change [14]: 10 and 25
Response After AII [14]: 195 and 210
% Inhibition [13]: 65%
Average Change [13]: 17.5
Response After AII [15]: 190
Change [16]: 10 and 5
Response After AII [16]: 205
Control Before AII [16]: 195 and 185
% Inhibition [15]: 85%
Average Change [15]: 7.5
Change [17]: 30 and 15
Response After AII [17]: 220 and 195
Control Before AII [17]: 190 and 180
% Inhibition [18]: 55%
Average Change [18]: 22.5
Response After AII [19]: 210
Change [20]: 10 and 0
Response After AII [20]: 215
Control Before AII [20]: 205 and 210
% Inhibition [19]: 90%
Average Change [19]: 5
Response After AII [21]: 200
Change [22]: 5 and 10
Response After AII [22]: 205
Control Before AII [22]: 200 and 190
% Inhibition [21]: 85%
Average Change [21]: 7.5
Change [23]: 20 and 15
Response After AII [23]: 210 and 200
Control Before AII [23]: 190 and 185
% Inhibition [24]: 65%
Average Change [24]: 17.5
Change [25]: 17 and 10
Response After AII [25]: 217 and 195
Control Before AII [25]: 200 and 185
% Inhibition [26]: 73%
Average Change [26]: 13.5
Change [27]: 30
Response After AII [27]: 235
Response After AII [28]: 205
Control Before AII [28]: 205 and 175
% Inhibition [27]: 40%
Average Change [27]: 30
